From US20260184715A1, “NOVEL PYRROLO[1,2-d][1,2,4] TRIAZINONE DERIVATIVES AS NEGATIVE ALLOSTERIC MODULATORS OF MGLU7 RECEPTORS” (Neurosterix Pharma Sarl., priority 2022, published 2026) come the findings set out here.

T1 sequence (Q14831 35-922 isoform Q14831-2 limits assumed): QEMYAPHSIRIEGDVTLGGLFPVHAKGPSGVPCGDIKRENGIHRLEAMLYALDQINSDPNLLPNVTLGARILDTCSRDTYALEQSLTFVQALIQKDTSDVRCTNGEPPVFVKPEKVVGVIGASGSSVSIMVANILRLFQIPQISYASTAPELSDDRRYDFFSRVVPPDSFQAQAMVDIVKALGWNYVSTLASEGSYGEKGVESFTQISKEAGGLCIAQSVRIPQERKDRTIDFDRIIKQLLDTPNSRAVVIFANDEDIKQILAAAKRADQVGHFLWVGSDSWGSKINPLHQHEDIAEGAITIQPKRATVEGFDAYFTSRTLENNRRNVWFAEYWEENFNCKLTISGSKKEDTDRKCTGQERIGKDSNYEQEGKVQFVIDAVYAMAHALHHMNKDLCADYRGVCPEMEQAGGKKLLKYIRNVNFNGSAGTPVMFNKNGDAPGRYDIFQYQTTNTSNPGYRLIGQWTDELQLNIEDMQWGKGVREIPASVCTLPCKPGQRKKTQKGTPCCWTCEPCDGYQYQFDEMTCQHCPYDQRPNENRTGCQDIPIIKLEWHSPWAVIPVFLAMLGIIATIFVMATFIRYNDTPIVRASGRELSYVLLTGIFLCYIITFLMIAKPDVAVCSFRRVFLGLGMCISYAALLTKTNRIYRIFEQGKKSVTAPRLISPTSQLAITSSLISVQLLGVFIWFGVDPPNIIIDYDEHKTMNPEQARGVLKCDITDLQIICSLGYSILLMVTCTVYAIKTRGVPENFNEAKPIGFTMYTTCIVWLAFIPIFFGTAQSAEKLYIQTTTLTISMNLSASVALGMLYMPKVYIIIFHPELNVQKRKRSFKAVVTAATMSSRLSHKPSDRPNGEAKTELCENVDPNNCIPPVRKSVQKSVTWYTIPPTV

This test concerns the target T1, human metabotropic glutamate 7 receptor (hmGlu7) (Homo sapiens, UniProt Q14831).
T1 construct: expressed in transfected cells
In words: mGlu7 assay on HEK-expressing human mGlu7: fluorescent cell based-Ca2+ mobilization assay (FLIPR), inhibition of EC80 L-AP4 response. Conditions: HEK-293 cells expressing hmGlu7, EC80 L-AP4; mean of at least three independent experiments in duplicate; read-out: Ca^2+ Flux (mean IC50). The text has this: mGlu7 Assay on HEK-Expressing Human mGLU7
The cDNA encoding the human metabotropic glutamate 7 receptor (hmGlu7), (accession number NM_181874.2, NCBI Nucleotide database browser), was subcloned into an expression vector containing also the hygromycin resistance gene. In parallel, the cDNA encoding a G protein allowing redirection of the activation signal to intracellular calcium flux was subcloned into a different expression vector containing also the Puromycin resistance gene. Transfection of both these vectors into HEK293 cells with PolyFect reagent (Qiagen) according to supplier's protocol, and hygromycin and puromycin treatment allowed selection of antibiotic resistant cells which had integrated stably one or more copies of the plasmids. Positive cellular clones expressing hmGlu7 were identified in a functional assay measuring changes in calcium fluxes in response to glutamate and L-AP4 or known mGlu7 orthosteric antagonists.
HEK-293 cells expressing hmGlu7 were maintained in media containing DMEM, Fetal Bovine Serum (10%), GlutaMAX™ (2 mM), penicillin (100 units/mL), streptomycin (100 μg/mL), geneticin (100 μg/mL) and hygromycin-B (40 μg/mL) and puromycin (1 μg/mL) at 37° C. with 5% CO2 in a humidified atmosphere.
Human mGlu7 HEK-293 cells were plated out 24 hours prior to a fluorescent cell-based calcium mobilization assay using FLIPR^384 assay (Molecular Device, Sunnyvale, CA, USA) in black-walled, clear-bottomed, poly-L-ornithine-coated 384-well plates at a density of 25,000 cells/well in a glutamine/glutamate free DMEM medium containing fetal bovine serum (10%), penicillin (100 units/mL), streptomycin (100 μg/mL) and doxycyline (1 μg/ml) at 37° C. with 5% CO2 in a humidified atmosphere.
On the day of the assay, the medium was aspirated and the cells were loaded with a 3 μM solution of Fluo4-AM (LuBioScience, Lucerne, Switzerland) in 0.03% pluronic acid. After 1 hour at 37° C./5% CO2, the non incorporated dye was removed by washing cell plate with the assay buffer. All assays were performed in a pH 7.4 buffered-Solution containing 20 mM HEPES, 143 mM NaCl, 6 mM KCl, 1 mM MgSO4, 1 mM CaCl2, 0.125 mM sulfinpyrazone and 0.1% glucose.
After 10 s of basal fluorescence recording, various concentrations of the compounds of the invention were added to the cells. Changes in fluorescence levels were first monitored for 180 s in order to detect any agonist activity of the compounds. Then the cells were stimulated by an EC80 L-AP4 concentration for an additional 110 s in order to measure inhibiting activities of the compounds of the invention. EC80 L-AP4 concentration is the concentration giving 80% of the maximal glutamate response.
The concentration-response curves of L-AP4 or representative compounds of the present invention were generated using the Prism GraphPad software (Graph Pad Inc, San Diego, USA). The curves were fitted to a four-parameter logistic equation:
(Y=Bottom+(Top−Bottom)/(1+10^((Log IC50−X)*Hill Slope)
allowing determination of IC50 values.
The Table 3 below represents the mean IC50 obtained from at least three independent experiments of selected molecules performed in duplicate.
For orientation: Calcium flux is commonly read through the fluorescence of an indicator in the cells.
As usually defined, the IC50 is the midpoint of a concentration-inhibition curve. Consider `Cc1c(-c2cccc3c2OCCN3C)cc2cnn(-c3ncccn3)c(=O)n12` [1-63], for which the IC50 is less than 0.1 µM. As for `Cc1c(-c2cccc3c2CCN3C)cc2cnn(-c3ccccn3)c(=O)n12` [1-64], the IC50 was less than 0.1 µM. As to `Cc1c(-c2cccc3c2CCN3C2CC2)cc2cnn(-c3ccccn3)c(=O)n12` [1-65], the IC50 was less than 0.1 µM. To `Cc1c(-c2cccc3c2CCN3C(C)C)cc2cnn(-c3ccccn3)c(=O)n12` [1-66] belongs 0.1 to 1 µM; to `Cc1c(-c2cccc3c2CCN3C2CC2)cc2cnn(-c3ncccn3)c(=O)n12` [1-67], 0.1 to 1 µM.

For `Cc1c(-c2cccc3c2CCN3C(C)C)cc2cnn(-c3ncccn3)c(=O)n12` [1-68], the IC50 is less than 0.1 µM. Next, `Cc1c(-c2cccc3c2CCO3)cc2cnn(-c3ccccn3)c(=O)n12` [1-69]: less than 0.1 µM; `Cc1c(-c2cccc(OC(F)F)c2)cc2cnn(-c3ccccn3)c(=O)n12` [1-70]: 0.1 to 1 µM. As to `Cc1c(OC(F)F)cccc1-c1cc2cnn(-c3ccccn3)c(=O)n2c1C` [1-71], the IC50 was less than 0.1 µM. For the molecule `COc1cccc(-c2cc3cnn(-c4ccccn4)c(=O)n3c2C)c1C` [1-72], the IC50 was less than 0.1 µM. Next, `COc1cccc(-c2cc3cnn(-c4ccccn4)c(=O)n3c2C)c1Cl` [1-73]: less than 0.1 µM. To `Cc1c(-c2cccc(OC(F)F)c2)cc2cnn(-c3ncccn3)c(=O)n12` [1-74] belongs less than 0.1 µM; to `Cc1c(OC(F)F)cccc1-c1cc2cnn(-c3ncccn3)c(=O)n2c1C` [1-75], less than 0.1 µM; to `COc1cccc(-c2cc3cnn(-c4ncccn4)c(=O)n3c2C)c1C` [1-76], less than 0.1 µM. `COc1cccc(-c2cc3cnn(-c4ncccn4)c(=O)n3c2C)c1Cl` [1-77]: the IC50 is less than 0.1 µM.

As to `Cc1c(-c2cccc3c2CC(=O)N3C)cc2cnn(-c3ccccn3)c(=O)n12` [1-78], the IC50 was less than 0.1 µM. `Cc1ccc(-c2c(C)c3cnn(-c4ncccn4)c(=O)n3c2C)c(C)c1` [1-79]: the IC50 is 1 to 10 µM.

Consider `Cc1c(-c2cccc(OC3CC3)c2)c(C)n2c(=O)n(-c3ncc(N4CCC(O)C4)cn3)ncc12` (stereo not shown) [1-80], for which the IC50 was in the range of 0.1 to 1 µM. To `Cc1c(-c2cccc(OC3CC3)c2)c(C)n2c(=O)n(-c3ncc(N)cn3)ncc12` [1-81] belongs 0.1 to 1 µM; to `Cc1c(OC2CC2)cccc1-c1cc2cnn(-c3ccccn3)c(=O)n2c1` [1-82], 0.1 to 1 µM. `Cc1c(-c2cccc(OC3CC3)c2)cc2cnn(-c3ccccn3)c(=O)n12` [1-83]: the 50% inhibitory concentration (IC50) was 1 to 10 µM. Next, `Cc1c(OC2CC2)cccc1-c1cc2cnn(-c3ccccn3)c(=O)n2c1C` [1-84]: 0.1 to 1 µM; `Cc1c(OC2CC2)cccc1-c1cc2cnn(-c3ncccn3)c(=O)n2c1C` [1-85]: 0.1 to 1 µM; `Cc1c(-c2cccc3c2CCCN3C)c(C)n2c(=O)n(-c3ncccn3)ncc12` [1-86]: 0.1 to 1 µM. To `Cc1c(-c2cccc3c2CCN3C)c(C)n2c(=O)n(-c3ncccn3)ncc12` [1-87] belongs 0.1 to 1 µM; to `Cc1c(-c2cccc(OC3CC3)c2)cc2cnn(-c3ncccn3)c(=O)n12` [1-88], less than 0.1 µM; to `Cc1c(-c2cccc3c2CCCN3C)cc2cnn(-c3ncccn3)c(=O)n12` [1-89], less than 0.1 µM. For the molecule `Cc1c(-c2cccc3c2CCN3C)cc2cnn(-c3ncccn3)c(=O)n12` [1-90], the IC50 was less than 0.1 µM. In the case of `Cc1ccc(OC2CC2)cc1-c1c(C)c2cnn(-c3ncccn3)c(=O)n2c1C` [1-93], the IC50 was less than 0.1 µM. Next, `CCn1ncc2c(C)c(-c3cccc4c3CCCN4C)c(C)n2c1=O` [1-94]: 0.1 to 1 µM; `COc1cccc(-c2c(C)c3cnn(-c4ncccn4)c(=O)n3c2C)c1C` [1-95]: 0.1 to 1 µM. With `Cc1c(-c2cccc3c2ccn3C2CC2)c(C)n2c(=O)n(-c3ncccn3)ncc12` [1-96], the IC50 was less than 0.1 µM.

With `Cc1c(-c2cccc3c2ccn3C)c(C)n2c(=O)n(-c3ncccn3)ncc12` [1-97], the IC50 fell in the range of 0.1 to 1 µM. Turning to `COc1cccc(-c2c(C)c3cnn(-c4ncccn4)c(=O)n3c2C)n1` [1-98], the IC50 was in the range of 0.1 to 1 µM. Next, `Cc1c(-c2cccc3c2CCN3C2CC2)c(C)n2c(=O)n(-c3ncccn3)ncc12` [1-99]: 0.1 to 1 µM. Next, `CCn1ncc2c(C)c(-c3cccc4c3CCN4C)c(C)n2c1=O` [1-100]: 0.1 to 1 µM; `COc1cc(F)cc(-c2cc3cnn(-c4ccccn4)c(=O)n3c2C)c1` [1-101]: 0.1 to 1 µM. Regarding `COc1ccc(F)c(-c2cc3cnn(-c4ccccn4)c(=O)n3c2C)c1` [1-102], the IC50 was less than 0.1 µM. Next, `COc1cc(F)cc(-c2cc3cnn(-c4ncccn4)c(=O)n3c2C)c1` [1-103]: less than 0.1 µM; `Cc1c(-c2cccc(OC3CC3)c2Cl)cc2cnn(-c3ccccn3)c(=O)n12` [1-104]: less than 0.1 µM; `COc1ccc(F)c(-c2cc3cnn(-c4ncccn4)c(=O)n3c2C)c1` [1-105]: 0.1 to 1 µM.

In the case of `COc1cc(-c2cc3cnn(-c4ccccn4)c(=O)n3c2C)ccn1` [1-106], the IC50 is less than 0.1 µM. Next, `COc1cc(-c2cc3cnn(-c4ccccn4)c(=O)n3c2C)ccc1F` [1-107]: less than 0.1 µM.

On to `COc1cccc(-c2cc3cnn(-c4ccccn4)c(=O)n3c2C)c1F` [1-108], for which the IC50 lay in the range of 0.1 to 1 µM.

Turning to `Cc1c(-c2cccc(OC3CC3)c2F)cc2cnn(-c3ccccn3)c(=O)n12` [1-109], the IC50 was less than 0.1 µM. Next, `Cc1c(-c2cccc(OC3CC3)c2Cl)cc2cnn(-c3ncccn3)c(=O)n12` [1-110]: less than 0.1 µM; `COc1cc(-c2cc3cnn(-c4ncccn4)c(=O)n3c2C)ccc1F` [1-111]: less than 0.1 µM. To `COc1cccc(-c2cc3cnn(-c4ncccn4)c(=O)n3c2C)c1F` [1-112] belongs 0.1 to 1 µM. Turning to `COc1cc(-c2cc3cnn(-c4ncccn4)c(=O)n3c2C)ccn1` [1-114], the IC50 was less than 0.1 µM. Next, `COc1cccc(-c2c(Br)c3cnn(-c4ccccn4)c(=O)n3c2C)c1F` [1-115, 8-bromo-7-(2-fluoro-3-methoxy-phenyl)-6-methyl-3-(2-pyridyl)pyrrolo[1,2-d][1,2,4]triazin-4-one]: 0.1 to 1 µM. To `COc1nccc(-c2cc3cnn(-c4ccccn4)c(=O)n3c2C)c1F` [1-116] belongs 0.1 to 1 µM. Turning to `COc1nccc(-c2cc3cnn(-c4ncccn4)c(=O)n3c2C)c1F` [1-117], the IC50 was less than 0.1 µM. For the molecule `Cc1c(-c2ccnc3c2CCN3C)cc2cnn(-c3ccccn3)c(=O)n12` [1-118, 6-methyl-7-(1-methyl-2,3-dihydropyrrolo[2,3-b]pyridin-4-yl)-3-(2-pyridyl)pyrrolo[1,2-d][1,2,4]triazin-4-one], the IC50 was less than 0.1 µM. Next, `Cc1c(-c2ccnc3c2CCN3C)cc2cnn(-c3ncccn3)c(=O)n12` [1-119]: 0.1 to 1 µM. Next, `Cc1c(OC(F)F)cccc1-c1c(C)c2cnn(-c3ncccn3)c(=O)n2c1C` [1-120]: 0.1 to 1 µM; `Cc1c(-c2cccc3c2CCCN3C2CC2)c(C)n2c(=O)n(-c3ncccn3)ncc12` [1-121]: 0.1 to 1 µM; `COc1ccc(-c2c(C)c3cnn(-c4ncccn4)c(=O)n3c2C)cc1` [1-122]: 0.1 to 1 µM. With `Cc1c(-c2cccc(F)c2Cl)c(C)n2c(=O)n(-c3ncccn3)ncc12` [1-123], the IC50 is less than 0.1 µM.

Consider `Cc1c(-c2cccc(OC3CCC3)c2)c(C)n2c(=O)n(-c3ncccn3)ncc12` [1-124], for which the IC50 is 0.1 to 1 µM.

With `Cc1c(-c2cccc(OC3CC3)c2F)c(C)n2c(=O)n(-c3ncccn3)ncc12` [1-125], the IC50 fell in the range of 0.1 to 1 µM. Turning to `COc1ccc(F)c(-c2c(C)c3cnn(-c4ccccn4)c(=O)n3c2C)c1` [1-126], the IC50 fell in the range of 0.1 to 1 µM.

As to `COc1ccc(F)c(-c2c(C)c3cnn(-c4ncccn4)c(=O)n3c2C)c1` [1-127], the IC50 is less than 0.1 µM. Regarding `COc1ccc(-c2c(C)c3cnn(-c4ccccn4)c(=O)n3c2C)cn1` [1-129], the IC50 was less than 0.1 µM. Regarding `COc1ccc(-c2c(C)c3cnn(-c4ccccn4)c(=O)n3c2C)cc1` [1-130], the IC50 was 0.1 to 1 µM.
